Read-outs that look alike come from different tables or passages of the source.
How the values were obtained:
Format in all cases: cell-based, Pseudomonas aeruginosa
[1] = test system: P. aeruginosa 125A; assay: MIC, CLSI broth microdilution in BD Phoenix AST Broth; details: strain 125A
[2] = test system: P. aeruginosa 125B; assay: as above; details: strain 125B
[3] = test system: P. aeruginosa 41A; assay: as above; details: strain 41A
[4] = test system: P. aeruginosa 41B; assay: as above; details: strain 41B
[5] = test system: P. aeruginosa PAO1; assay: as above; details: for MIC: agent alone, 37°C, 18–22 h, three biological replicates
[6] = test system: P. aeruginosa PAOUW; assay: as above; details: strain PAOUW; for MIC: agent alone, 37°C, 18–22 h, three biological replicates
[7] = test system: P. aeruginosa PAOUW∆oprF; assay: as above
[8] = test system: P. aeruginosa PAOΔmexR; assay: as above
[9] = test system: P. aeruginosa PAOΔmexZ; assay: as above; details: strain PAOΔmexZ
[10] = test system: P. aeruginosa PAOΔoprM; assay: as above
[11] = test system: P. aeruginosa PAO1; assay: Checkerboard assay with RW01
Description: (§1) To assess the in vitro interaction between RW01 and tetracyclines, the checkerboard assay method was performed in 96-well microtiter plates using strains PAO1 and PAOUW. In the same way as for MIC determination, BD Phoenix AST Broth (Becton Dickinson) medium was used for bacterial growth. Minocycline and tigecycline combined with RW01 were the agents selected for the assay. A column and a row of wells in the checkerboard plate were reserved for controls of each antimicrobial individually to ensure the proper concentration of the agents. Positive and negative controls were also included. Wells in rows contained serial dilutions of RW01 starting from 512 mg/L, while those in columns varied in concentrations of the antibiotic. Inoculum at ~5 × 10⁵ CFU/mL, antibiotic, RW01, and AST broth were added to a final volume of 200 µL. Plates were incubated at 37°C for 18–22 h under aerobic conditions. Three biological replicates were obtained. Fractional inhibitory concentration index (FICI) is defined as the summatory of fractional inhibitory concentrations (FICs) from compound A: RW01, and compound B: minocycline/tigecycline. FICs were calculated as:
(§2) FIC of RW01 (FICRW01)=MIC of RW01 in combination/MIC of RW01 alone,FIC of antibiotic (FICATB)=MIC of ATB in combination/MIC of ATB alone,FICI=FICRW01 +FICATB.
(§3) FICI was interpreted as follows: synergistic effect if FICI is ≤0.5; additive effect if 0.5 < FICI ≤ 1.0; indifferent effect if 1.0 < FICI ≤ 2.0; and finally, antagonistic effect if FICI is >2.0. The average FICI considering the antibiotic MIC (no growth in any of the replicates) at different concentrations of RW01 was calculated ([28]).

[12] = test system: P. aeruginosa PAOUW; assay: Checkerboard assay with RW01
Description: as §1, §2, §3

[13] = Pseudomonas aeruginosa, agent alone, 37°C, 18–22 h, three biological replicates
[14] = MIC of the antibiotic with fixed 100 mg/L RW01
[15] = antibiotic MIC alone vs with RW01 100 mg/L
[16] = antibiotic with RW01 at 100 mg/L
[17] = strain PAO1, antibiotic with RW01 at 100 mg/L
[18] = strain PAOUWΔoprF (printed PAOΔoprF), antibiotic with RW01 at 100 mg/L
[19] = strain PAOΔmexR, antibiotic with RW01 at 100 mg/L
[20] = strain PAOΔoprM, antibiotic with RW01 at 100 mg/L
[21] = antibiotic combined with RW01, checkerboard, AST broth, 37°C, 18–22 h, three biological replicates

CN(C)c1ccc(O)c2c1C[C@H]1C[C@H]3[C@H](N(C)C)C(O)=C(C(N)=O)C(=O)[C@@]3(O)C(O)=C1C2=O [Minocycline, minocycline]
MIC [1, 13]: 8 µg/mL | Antibiotic MIC + RW01 100 mg/L [1, 14]: 1 µg/mL | Potentiation (fold) [1, 15]: 8 fold | FICI [1, 16]: 0.320 | FICI-determined effect [1, 16]: Synergy (synergistic effect if FICI is ≤0.5) | MIC [2, 13]: 8 µg/mL | Antibiotic MIC + RW01 100 mg/L [2, 14]: 1 µg/mL | Potentiation (fold) [2, 15]: 8 fold | FICI [2, 16]: 0.320 | FICI-determined effect [2, 16]: Synergy (synergistic effect if FICI is ≤0.5) | MIC [3, 13]: 8 µg/mL | Antibiotic MIC + RW01 100 mg/L [3, 14]: 2 µg/mL | Potentiation (fold) [3, 15]: 4 fold | FICI [3, 16]: 0.348 | FICI-determined effect [3, 16]: Synergy (synergistic effect if FICI is ≤0.5) | MIC [4, 13]: 16 µg/mL | Potentiation (fold) [4, 15]: 8 fold | FICI [4, 16]: 0.223 | FICI-determined effect [4, 16]: Synergy (synergistic effect if FICI is ≤0.5) | MIC ([5]; Pseudomonas aeruginosa, PAO1, strain PAO1, read-out: MIC): 8 to 16 µg/mL | Antibiotic MIC + RW01 100 mg/L ([5]; strain PAO1, MIC of the antibiotic with fixed 100 mg/L RW01): 2 µg/mL | MIC ([5]; strain PAO1): 8 µg/mL | Potentiation (fold) ([5]; strain PAO1, antibiotic MIC alone vs with RW01 100 mg/L): 4 fold | FICI [5, 17]: 0.445 | FICI-determined effect [5, 17]: Synergy (synergistic effect if FICI is ≤0.5) | MIC ([6]; Pseudomonas aeruginosa, read-out: MIC): 16 µg/mL | MIC [6]: 8 µg/mL | Potentiation (fold) [6, 15]: 8 fold | FICI [6, 16]: 0.223 | FICI-determined effect [6, 16]: Synergy (synergistic effect if FICI is ≤0.5) | MIC ([7]; Pseudomonas aeruginosa, strain PAOUWΔoprF, agent alone, 37°C, 18–22 h, three biological replicates): 8 µg/mL | Potentiation (fold) ([7]; strain PAOUWΔoprF (printed PAOΔoprF), antibiotic MIC alone vs with RW01 100 mg/L): 8 fold | FICI [7, 18]: 0.223 | FICI-determined effect [7, 18]: Synergy (synergistic effect if FICI is ≤0.5) | Antibiotic MIC + RW01 100 mg/L ([7]; strain PAOUWΔoprF, MIC of the antibiotic with fixed 100 mg/L RW01): 1 µg/mL | MIC ([8]; Pseudomonas aeruginosa): 8 µg/mL | Antibiotic MIC + RW01 100 mg/L ([8]; strain PAOΔmexR, MIC of the antibiotic with fixed 100 mg/L RW01): 1 µg/mL | Potentiation (fold) ([8]; strain PAOΔmexR, antibiotic MIC alone vs with RW01 100 mg/L): 8 fold | FICI [8, 19]: 0.223 | FICI-determined effect [8, 19]: Synergy (synergistic effect if FICI is ≤0.5) | MIC [9, 13]: 8 µg/mL | Antibiotic MIC + RW01 100 mg/L [9, 14]: 1 µg/mL | FICI [9, 16]: 0.160 | FICI-determined effect [9, 16]: Synergy (synergistic effect if FICI is ≤0.5) | MIC ([10]; Pseudomonas aeruginosa): 2 µg/mL | Antibiotic MIC + RW01 100 mg/L ([10]; strain PAOΔoprM, MIC of the antibiotic with fixed 100 mg/L RW01): 0.5 µg/mL | Potentiation (fold) ([10]; strain PAOΔoprM, antibiotic MIC alone vs with RW01 100 mg/L): 4 fold | FICI [10, 20]: 0.348 | FICI-determined effect [10, 20]: Synergy (synergistic effect if FICI is ≤0.5) | interaction with RW01 (checkerboard) [11]: additive | average FIC Index [11, 21]: 0.535 | interaction with RW01 (checkerboard) [12]: synergistic | average FIC Index [12, 21]: 0.406

Reference: publication PMC11823630, “In vitro potentiation of tetracyclines in Pseudomonas aeruginosa by RW01, a new cyclic peptide” (Antimicrobial Agents and Chemotherapy, 2024)
